Test results reported in patent US7504362B2, “Pesticidal compositions” (Merial Limited, priority 2002, dated 2009).

Test system: Ctenocephalides felis, Diabrotica undecimpunctata, Nephotettix cincticeps or Rhipicephalus sanguineus
Assay: Pooled statement: active in one or more of the above tests (Methods A to E)
Type: in vivo
Conditions: active = reaching the threshold of Method A, B, C, D or E; test not given per compound
Experimental: The following representative test procedures, using compounds of the invention, were conducted to determine the parasiticidal and pesticidal activity of compounds of the invention.
A test container was filled with 10 adults of Ctenocephalides felis. A glass cylinder was closed on one end with parafilm and placed on top of the test container. The test compound solution was then pipetted into bovine blood and added to the glass cylinder. The treated Ctenocephalides felis were held in this artificial dog test (blood 37° C., 40-60% relative humidity; Ctenocephalides felis 20-22° C., 40-60% relative humidity) and assessment performed at 24 and 48 hours after application. Active compounds gave at least 90% control of Ctenocephalides felis at a test concentration of 5 ppm or less.
Two days before application, seeds of maize were soaked in water under warm conditions to elicit fast germination. One day before application, eggs of Diabrotica undecimpunctata were transferred to one half of a Japanese filter paper placed in a plastic petri dish. Afterwards, a sprouted maize seed was placed on a moistened pad beside the filter paper. Three drops of 200 microliters of test compound solution were carefully pipetted onto the egg. The remainder of the solution was placed on the maize and then the Petri dish was closed. The treated eggs in the Petri dishes were held in a climate chamber for 6 days. The compound efficacy (percentage of dead eggs and/or larvae in comparison to untreated control) was assessed 6 days after application using a binocular microscope.
Active compounds gave at least 90% control of Diabrotica undecimpunctata at a test concentration of 10 ppm.
The leaves of 12 rice plants having a stem length of 8 cm were dipped for 5 seconds into an aqueous solution of the formulated test compound. After the solution had run off, the rice plants treated in this manner were placed in a Petri dish and populated with about 20 larvae (L3 stage) of Nephotettix cincticeps. The Petri dish was closed and then stored in a climate chamber (16 hours of light/day, 25° C., 40-60% relative humidity). After 6 days storage, the percentage mortality of leafhopper larvae was determined.
Active compounds gave at least 98% mortality of Nephotettix cinciceps larvae at a test concentration of 100 ppm.
Solutions of the test compounds were dropped onto filter paper, dried and the filter paper placed into test tubes and infested with 10 adults of Ctenocephalides felis. The treated Ctenocephalides felis were held in a climate chamber (26° C., 80% RH) and the percentage efficacy assessed 24 hours and 48 hours after application in comparison with the untreated control.
Active compounds gave at least 70% contact control of Ctenocephalides felis at a test concentration of 1000 ppm.
Solutions of the test compounds were dropped onto filter paper, dried and the filter paper placed into test tubes and infested with 20-30 larvae (L1) of Rhipicephalus sanguineus and the tubes closed with a clip. The treated Rhipicephalus sanguineus were held in a climate chamber (25° C., 90% RH) and the percentage efficacy assessed 24 hours after application in comparison with the untreated control. Active compounds gave at least 70% contact control of Rhipicephalus sanguineus at a test concentration of 100 ppm.

Compound | active in one or more of the above tests
CN(c1c([S+]([O-])C(F)(F)F)c(C#N)nn1-c1c(Cl)cc(C(F)(F)F)cc1Cl)S(=O)(=O)c1cccc(Cl)c1 (stereo not drawn) [Compound 5-47] | active
CN(c1c([S+]([O-])C(F)(F)F)c(C#N)nn1-c1c(Cl)cc(C(F)(F)F)cc1Cl)S(=O)(=O)Cc1ccc(F)cc1 (stereo not drawn) [Compound 2-86] | active
CC(C)S(=O)(=O)N(C)c1c([S+]([O-])C(F)(F)F)c(C#N)nn1-c1c(Cl)cc(C(F)(F)F)cc1Cl (stereo not drawn) [Compound 1-85] | active
CN(c1c(SC(F)(F)F)c(C#N)nn1-c1c(Cl)cc(C(F)(F)F)cc1Cl)S(C)(=O)=O [Compound 1-2] | active
CN(c1c(SC(F)(F)F)c(C#N)nn1-c1c(Cl)cc(C(F)(F)F)cc1Cl)S(=O)(=O)c1ccccc1Cl [Compound 5-1] | active
CCCCS(=O)(=O)N(C)c1c(S(=O)(=O)C(F)(F)F)c(C#N)nn1-c1c(Cl)cc(C(F)(F)F)cc1Cl [Compound 1-120] | active
CN(c1c([S+]([O-])C(F)(F)F)c(C#N)nn1-c1c(Cl)cc(C(F)(F)F)cc1Cl)S(=O)(=O)c1ccc(Cl)cc1 (stereo not drawn) [Compound 5-48] | active
CN(c1c(SC(F)(F)F)c(C#N)nn1-c1c(Cl)cc(C(F)(F)F)cc1Cl)S(=O)(=O)Cc1ccc(Cl)c(Cl)c1 [Compound 2-48] | active
CN(c1c(SC(F)(F)F)c(C#N)nn1-c1c(Cl)cc(C(F)(F)F)cc1Cl)S(=O)(=O)c1ccccc1 [Compound 5-36] | active
CN(c1c(S(=O)(=O)C(F)(F)F)c(C#N)nn1-c1c(Cl)cc(C(F)(F)F)cc1Cl)S(=O)(=O)Cc1ccc(C(F)(F)F)cc1 [Compound 2-128] | active
CS(=O)(=O)Nc1c(SC(F)(F)F)c(C#N)nn1-c1c(Cl)cc(C(F)(F)F)cc1Cl [Compound 1-1] | active
CN(c1c([S+]([O-])C(F)(F)F)c(C#N)nn1-c1c(Cl)cc(C(F)(F)F)cc1Cl)S(=O)(=O)Cc1cccc(C(F)(F)F)c1 (stereo not drawn) [Compound 2-92] | active
CN(c1c(SC(F)(F)F)c(C#N)nn1-c1c(Cl)cc(C(F)(F)F)cc1Cl)S(=O)(=O)c1ccc(C(F)(F)F)cc1 [Compound 5-16] | active
CN(c1c([S+]([O-])C(F)(F)F)c(C#N)nn1-c1c(Cl)cc(C(F)(F)F)cc1Cl)S(=O)(=O)Cc1ccccc1 (stereo not drawn) [Compound 2-16, 1-(2,6-Dichloro-4-trifluoromethylphenyl)-3-cyano-5-(N-benzylsulfonyl-N-methylamino)-4-trifluoromethylsulfinylpyrazole] | active
CCS(=O)(=O)N(C)c1c(SC(F)(F)F)c(C#N)nn1-c1c(Cl)cc(C(F)(F)F)cc1Cl [Compound 1-44] | active
CN(c1c([S+]([O-])C(F)(F)F)c(C#N)nn1-c1c(Cl)cc(C(F)(F)F)cc1Cl)S(=O)(=O)c1cc(Cl)cc(Cl)c1 (stereo not drawn) [Compound 5-87] | active
CN(c1c([S+]([O-])C(F)(F)F)c(C#N)nn1-c1c(Cl)cc(C(F)(F)F)cc1Cl)S(=O)(=O)Cc1cc(C(F)(F)F)cc(C(F)(F)F)c1 (stereo not drawn) [Compound 2-94] | active
CN(c1c(S(=O)(=O)C(F)(F)F)c(C#N)nn1-c1c(Cl)cc(C(F)(F)F)cc1Cl)S(=O)(=O)Cc1cc(Cl)cc(Cl)c1 [Compound 2-151] | active
CN(c1c([S+]([O-])C(F)(F)F)c(C#N)nn1-c1c(Cl)cc(C(F)(F)F)cc1Cl)S(=O)(=O)C(Cl)Cl (stereo not drawn) [Compound 1-119] | active
CN(c1c([S+]([O-])C(F)(F)F)c(C#N)nn1-c1c(Cl)cc(C(F)(F)F)cc1Cl)S(=O)(=O)c1cccc(C(F)(F)F)c1 (stereo not drawn) [Compound 5-60] | active

Compound | active in one or more of the above tests
CN(c1c([S+]([O-])C(F)(F)F)c(C#N)nn1-c1c(Cl)cc(C(F)(F)F)cc1Cl)S(C)(=O)=O (stereo not drawn) [Compound 1-16] | active
CCS(=O)(=O)N(C)c1c(S(=O)(=O)C(F)(F)F)c(C#N)nn1-c1c(Cl)cc(C(F)(F)F)cc1Cl [Compound 1-72] | active
CCCCCCCCS(=O)(=O)N(C)c1c([S+]([O-])C(F)(F)F)c(C#N)nn1-c1c(Cl)cc(C(F)(F)F)cc1Cl (stereo not drawn) [Compound 1-93] | active
CN(c1c([S+]([O-])C(F)(F)F)c(C(N)=S)nn1-c1c(Cl)cc(C(F)(F)F)cc1Cl)S(=O)(=O)Cc1ccccc1 (stereo not drawn) [Compound 7-32] | active
C=CS(=O)(=O)N(C)c1c([S+]([O-])C(F)(F)F)c(C#N)nn1-c1c(Cl)cc(C(F)(F)F)cc1Cl (stereo not drawn) [Compound 1-97] | active
CCCCCCCCCS(=O)(=O)N(C)c1c(SC(F)(F)F)c(C#N)nn1-c1c(Cl)cc(C(F)(F)F)cc1Cl [Compound 1-124] | active
Cc1ccc(CS(=O)(=O)N(C)c2c([S+]([O-])C(F)(F)F)c(C#N)nn2-c2c(Cl)cc(C(F)(F)F)cc2Cl)cc1 (stereo not drawn) [Compound 2-109] | active
CN(c1c(S(=O)(=O)C(F)(F)F)c(C#N)nn1-c1c(Cl)cc(C(F)(F)F)cc1Cl)S(=O)(=O)Cc1cccc(C(F)(F)F)c1 [Compound 2-127] | active
CN(c1c(SC(F)(F)F)c(C#N)nn1-c1c(Cl)cc(C(F)(F)F)cc1Cl)S(=O)(=O)Cc1ccccc1 [Compound 2-2] | active
COc1ccc(S(=O)(=O)N(C)c2c(SC(F)(F)F)c(C#N)nn2-c2c(Cl)cc(C(F)(F)F)cc2Cl)cc1 [Compound 5-22] | active
CCCCCCCCCCCCS(=O)(=O)N(C)c1c([S+]([O-])C(F)(F)F)c(C#N)nn1-c1c(Cl)cc(C(F)(F)F)cc1Cl (stereo not drawn) [Compound 1-126] | active
CCCCCc1ccc(CS(=O)(=O)N(C)c2c(SC(F)(F)F)c(C#N)nn2-c2c(Cl)cc(C(F)(F)F)cc2Cl)cc1 [Compound 2-148] | active
CN(c1c(SC(F)(F)F)c(C#N)nn1-c1c(Cl)cc(C(F)(F)F)cc1Cl)S(=O)(=O)Cc1cc(Cl)cc(Cl)c1 [Compound 2-149] | active
CN(c1c([S+]([O-])C(F)(F)F)c(C#N)nn1-c1c(Cl)cc(C(F)(F)F)cc1Cl)S(=O)(=O)C=Cc1ccccc1 (stereo not drawn) [Compound 1-114] | active
CN(c1c([S+]([O-])C(F)(F)F)c(C#N)nn1-c1c(Cl)cc(C(F)(F)F)cc1Cl)S(=O)(=O)c1cccc2ccccc12 (stereo not drawn) [Compound 5-89] | active
Cc1ccc(S(=O)(=O)N(C)c2c([S+]([O-])C(F)(F)F)c(C#N)nn2-c2c(Cl)cc(C(F)(F)F)cc2Cl)cc1 (stereo not drawn) [Compound 5-77] | active
CN(c1c(SC(F)(F)F)c(C#N)nn1-c1c(Cl)cc(C(F)(F)F)cc1Cl)S(=O)(=O)Cc1ccc(C(F)(F)F)cc1 [Compound 2-58] | active
CN(c1c([S+]([O-])C(F)(F)F)c(C#N)nn1-c1c(Cl)cc(C(F)(F)F)cc1Cl)S(=O)(=O)c1ccc(C(C)(C)C)cc1 (stereo not drawn) [Compound 5-83] | active
CN(c1c([S+]([O-])C(F)(F)F)c(C#N)nn1-c1c(Cl)cc(C(F)(F)F)cc1Cl)S(=O)(=O)c1ccc(C(F)(F)F)cc1 (stereo not drawn) [Compound 5-61] | active
